Data on 2 molecules can be found in ChEMBL document CHEMBL1149407, “Angelmarin, a novel anti-cancer agent able to eliminate the tolerance of cancer cells to nutrient starvation” (2006).

The test system of experiment [1] is PANC-1. Put plainly: Cytotoxicity in pancreatic PANC1 cancer cells at 100 ug/ml in nutrient-rich condition. Conditions: Homo sapiens. It counts as functional, cell-based.
For experiment [2], the system named is PANC-1. Nature of the experiment: Cytotoxicity in pancreatic PANC1 cancer cells at 100 ug/ml in nutrient-deprived condition. It counts as functional, cell-based. Particulars: Homo sapiens.
Experiment [3] deals with PANC-1. Put plainly: Cytotoxicity in pancreatic PANC1 cancer cells at 10 ug/ml within 6 hours of nutrient deprivation. It is filed as functional, Homo sapiens.
The test system of experiment [4] is PANC-1. Put plainly: Cytotoxicity in pancreatic PANC1 cancer cells at 0.01 ug/ml within 24 hours of nutrient deprivation. It is filed as functional, Homo sapiens.

Activity calls are given as the source filed them. The rule behind the calls is not given here.

Consider `CC(C)(O)[C@@H]1Cc2c(ccc3ccc(=O)oc23)O1`, for which the outcome with PANC-1 [1] and in the experiment on PANC-1 [2] was inactive.
Turning to `CC(C)(OC(=O)/C=C/c1ccc(O)cc1)[C@@H]1Cc2c(ccc3ccc(=O)oc23)O1` [ANGELMARIN], the Activity in the experiment with PANC-1 [3] and in the experiment on PANC-1 [4] was 100% each time.
